Measured values taken from ChEMBL document CHEMBL4304804, “Synthesis and biological evaluation of calycanthaceous alkaloid analogs” (Bioorg Med Chem, 2019).
Converted amounts (≈) assume the structure as drawn. The source made the active and inactive calls. The rule behind the calls is not given here.

Experiments:
Verticillium dahliae [1] = assay: Antifungal activity against Verticillium dahliae assessed as reduction in fungal cell growth incubated for 48 hrs by serial dilution method; format: functional
Ralstonia solanacearum = assay: Antibacterial activity against Ralstonia solanacearum assessed as reduction in bacterial cell growth incubated for 24 hrs by filter paper assay; format: functional
Cytospora = assay: Antifungal activity against Cytospora juglandis assessed as reduction in fungal cell growth incubated for 48 hrs by serial dilution method; format: functional
Candida tropicalis = assay: Antifungal activity against Candida tropicalis assessed as reduction in fungal cell growth incubated for 48 hrs by serial dilution method; format: functional
Curvularia lunata [2] = assay: Antifungal activity against Curvularia lunata assessed as reduction in fungal cell growth incubated for 48 hrs by serial dilution method; format: functional
Staphylococcus aureus = assay: Antibacterial activity against Staphylococcus aureus assessed as reduction in bacterial cell growth incubated for 24 hrs by filter paper assay; format: functional
Escherichia coli = assay: Antibacterial activity against Escherichia coli assessed as reduction in bacterial cell growth incubated for 24 hrs by filter paper assay; format: functional
Acetylcholinesterase = Acetylcholinesterase (Electrophorus electricus, UniProt O42275); assay: Inhibition of electric eel AChE by Ellman's colorimetry
[3] = test system: Fusarium oxysporum f. sp. vasinfectum; assay: Antifungal activity against Fusarium oxysporum sp. vasinfectum assessed as reduction in fungal cell growth incubated for 48 hrs by serial dilution method; format: functional
Bacillus cereus = assay: Antibacterial activity against Bacillus cereus assessed as reduction in bacterial cell growth incubated for 24 hrs by filter paper assay; format: functional
Penicillium citrinum = assay: Antifungal activity against Penicillium citrinum assessed as reduction in fungal cell growth incubated for 48 hrs by serial dilution method; format: functional
Cryptococcus neoformans = assay: Antifungal activity against Cryptococcus neoformans assessed as reduction in fungal cell growth incubated for 48 hrs by serial dilution method; format: functional
Pseudomonas aeruginosa = assay: Antibacterial activity against Pseudomonas aeruginosa assessed as reduction in bacterial cell growth incubated for 24 hrs by filter paper assay; format: functional
Fusarium oxysporum = assay: Antifungal activity against Fusarium oxysporum assessed as reduction in fungal cell growth incubated for 48 hrs by serial dilution method; format: functional
Aspergillus flavus = assay: Antifungal activity against Aspergillus flavus assessed as reduction in fungal cell growth incubated for 48 hrs by serial dilution method; format: functional
Candida = assay: Antifungal activity against […] assessed as reduction in fungal cell growth incubated for 48 hrs by serial dilution method; format: functional
[4] = test system: Colletotrichum orbiculare; assay: Antifungal activity against Colletotrichum orbiculare assessed as reduction in fungal cell growth incubated for 48 hrs by serial dilution method; format: functional
Aspergillus niger = assay: Antifungal activity against Aspergillus niger assessed as reduction in fungal cell growth incubated for 48 hrs by serial dilution method; format: functional
[5] = biological target: Acetylcholinesterase (Electrophorus electricus) (UniProt O42275); assay: Inhibition of electric eel AChE by at 1 mg/ml Ellman's colorimetry relative to control
Verticillium dahliae [6] = assay: Antifungal activity against Verticillium dahliae assessed as reduction in fungal cell growth at 31.25 ug/ml incubated for 48 hrs by serial dilution method relative to control; format: functional
Verticillium dahliae [7] = assay: Antifungal activity against Verticillium dahliae assessed as reduction in fungal cell growth at 62.5 ug/ml incubated for 48 hrs by serial dilution method relative to control; format: functional
Verticillium dahliae [8] = assay: Antifungal activity against Verticillium dahliae assessed as reduction in fungal cell growth at 250 ug/ml incubated for 48 hrs by serial dilution method relative to control; format: functional
Verticillium dahliae [9] = assay: Antifungal activity against Verticillium dahliae assessed as reduction in fungal cell growth at 125 ug/ml incubated for 48 hrs by serial dilution method relative to control; format: functional
Curvularia lunata [10] = assay: Antifungal activity against Curvularia lunata assessed as reduction in fungal spore germination at 125 ug/ml relative to control; format: functional

Acetylcholinesterase, sequence (O42275 whole entry): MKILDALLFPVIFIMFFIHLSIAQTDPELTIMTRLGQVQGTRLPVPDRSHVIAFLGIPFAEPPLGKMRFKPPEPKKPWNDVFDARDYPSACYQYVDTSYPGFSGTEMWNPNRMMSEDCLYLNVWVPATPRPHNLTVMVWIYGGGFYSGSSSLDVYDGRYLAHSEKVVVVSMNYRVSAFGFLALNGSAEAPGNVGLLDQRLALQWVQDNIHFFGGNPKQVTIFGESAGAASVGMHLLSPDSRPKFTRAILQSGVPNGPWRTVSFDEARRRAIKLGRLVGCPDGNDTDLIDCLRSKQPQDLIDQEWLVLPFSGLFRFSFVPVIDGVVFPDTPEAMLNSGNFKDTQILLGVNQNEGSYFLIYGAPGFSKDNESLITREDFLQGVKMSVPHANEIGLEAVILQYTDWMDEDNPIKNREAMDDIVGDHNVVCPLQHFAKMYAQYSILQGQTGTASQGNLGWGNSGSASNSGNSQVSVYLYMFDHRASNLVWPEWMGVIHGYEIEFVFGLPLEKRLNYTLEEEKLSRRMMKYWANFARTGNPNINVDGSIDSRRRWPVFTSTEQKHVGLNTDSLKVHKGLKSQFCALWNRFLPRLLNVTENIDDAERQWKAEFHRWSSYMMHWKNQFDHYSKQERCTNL
Acetylcholinesterase (Electrophorus electricus), sequence (O42275 24-633 limits assumed): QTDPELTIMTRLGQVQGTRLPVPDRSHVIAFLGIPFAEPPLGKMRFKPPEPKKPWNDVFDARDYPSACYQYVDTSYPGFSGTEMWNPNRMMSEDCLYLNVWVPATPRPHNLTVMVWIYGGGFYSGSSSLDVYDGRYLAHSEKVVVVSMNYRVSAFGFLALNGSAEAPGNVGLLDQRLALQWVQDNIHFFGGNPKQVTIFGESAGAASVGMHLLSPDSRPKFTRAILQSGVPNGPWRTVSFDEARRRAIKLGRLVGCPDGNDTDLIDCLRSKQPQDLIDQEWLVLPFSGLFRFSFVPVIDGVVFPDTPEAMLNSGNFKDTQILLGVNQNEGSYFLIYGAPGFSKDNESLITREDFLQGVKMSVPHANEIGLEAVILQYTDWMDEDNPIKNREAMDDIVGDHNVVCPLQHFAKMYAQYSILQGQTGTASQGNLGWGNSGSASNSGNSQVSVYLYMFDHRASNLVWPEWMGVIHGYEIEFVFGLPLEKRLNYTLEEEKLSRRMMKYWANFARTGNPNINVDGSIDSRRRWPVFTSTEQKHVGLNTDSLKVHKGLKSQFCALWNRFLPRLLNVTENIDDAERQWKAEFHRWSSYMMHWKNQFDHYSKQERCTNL

SMILES | MIC (Verticillium dahliae [1]) | MIC (Ralstonia solanacearum) | MIC (Cytospora) | MIC (Candida tropicalis) | MIC (Curvularia lunata [2]) | MIC (Staphylococcus aureus) | MIC (Escherichia coli) | IC50 (Acetylcholinesterase) | MIC [3] | MIC (Bacillus cereus) | MIC (Penicillium citrinum) | MIC (Cryptococcus neoformans) | MIC (Pseudomonas aeruginosa) | MIC (Fusarium oxysporum) | MIC (Aspergillus flavus) | MIC (Candida) | MIC [4] | MIC (Aspergillus niger) | inhibition [5] | other results
CCC(=O)N1CCCC2(O)c3ccccc3N(C)C12 (stereo not drawn) | 250 µg/mL (≈ 960 µM) | 31.2 µg/mL (≈ 120 µM) | inactive | inactive | inactive | inactive | inactive | 0.0384 nM | inactive | inactive | inactive | inactive | 250 µg/mL (≈ 960 µM) | inactive | inactive | inactive | inactive | inactive | > 80% | –
CN1c2ccccc2C2(O)CCCN(C(=O)c3ccc(F)cc3)C12 (stereo not drawn) | 250 µg/mL (≈ 766 µM) | 125 µg/mL (≈ 383 µM) | 250 µg/mL (≈ 766 µM) | 250 µg/mL (≈ 766 µM) | 125 µg/mL (≈ 383 µM) | 250 µg/mL (≈ 766 µM) | 250 µg/mL (≈ 766 µM) | 0.306 nM | 250 µg/mL (≈ 766 µM) | inactive | 250 µg/mL (≈ 766 µM) | inactive | 250 µg/mL (≈ 766 µM) | 250 µg/mL (≈ 766 µM) | 250 µg/mL (≈ 766 µM) | inactive | 250 µg/mL (≈ 766 µM) | inactive | > 80% | –
Cc1ccc(S(=O)(=O)N2CCC3(Cc4ccccc4C)c4ccccc4N(Cc4ccccc4C)C23)cc1 (stereo not drawn) | 62.5 µg/mL (≈ 120 µM) | 250 µg/mL (≈ 478 µM) | 250 µg/mL (≈ 478 µM) | 250 µg/mL (≈ 478 µM) | inactive | 250 µg/mL (≈ 478 µM) | 250 µg/mL (≈ 478 µM) | 210 nM | 250 µg/mL (≈ 478 µM) | inactive | inactive | inactive | inactive | 250 µg/mL (≈ 478 µM) | 250 µg/mL (≈ 478 µM) | 250 µg/mL (≈ 478 µM) | 250 µg/mL (≈ 478 µM) | 250 µg/mL (≈ 478 µM) | > 80% | –
CCCCCCCC(=O)N1CCC2(Cc3ccccc3C)c3ccccc3N(Cc3ccccc3C)C12 (stereo not drawn) | 31.2 µg/mL (≈ 63.2 µM) | 62.5 µg/mL (≈ 126 µM) | 125 µg/mL (≈ 253 µM) | 125 µg/mL (≈ 253 µM) | 125 µg/mL (≈ 253 µM) | 125 µg/mL (≈ 253 µM) | 125 µg/mL (≈ 253 µM) | 16500 nM | 250 µg/mL (≈ 505 µM) | 62.5 µg/mL (≈ 126 µM) | 250 µg/mL (≈ 505 µM) | 62.5 µg/mL (≈ 126 µM) | 125 µg/mL (≈ 253 µM) | 125 µg/mL (≈ 253 µM) | 250 µg/mL (≈ 505 µM) | 31.2 µg/mL (≈ 63.2 µM) | 250 µg/mL (≈ 505 µM) | 250 µg/mL (≈ 505 µM) | – | inhibition at 31.25 µg/mL (Verticillium dahliae [6]): 46.2%; inhibition at 62.5 µg/mL (Verticillium dahliae [7]): 47%; inhibition at 250 µg/mL (Verticillium dahliae [8]): 67.7%; inhibition at 125 µg/mL (Verticillium dahliae [9]): 63.4%
Cc1ccccc1CN1c2ccccc2C2(Cc3ccccc3C)CCN(S(=O)(=O)c3ccccc3)C12 (stereo not drawn) | 125 µg/mL (≈ 246 µM) | inactive | 250 µg/mL (≈ 491 µM) | inactive | inactive | inactive | inactive | 275 nM | 250 µg/mL (≈ 491 µM) | 125 µg/mL (≈ 246 µM) | inactive | inactive | inactive | 250 µg/mL (≈ 491 µM) | 250 µg/mL (≈ 491 µM) | 250 µg/mL (≈ 491 µM) | 250 µg/mL (≈ 491 µM) | 250 µg/mL (≈ 491 µM) | > 80% | inhibition (Curvularia lunata [10]): Active
CN1c2ccccc2C2(O)CCCN(C(=O)c3ccccc3)C12 (stereo not drawn) | inactive | 62.5 µg/mL (≈ 203 µM) | inactive | 250 µg/mL (≈ 811 µM) | inactive | 250 µg/mL (≈ 811 µM) | 250 µg/mL (≈ 811 µM) | 259 nM | inactive | inactive | inactive | inactive | 250 µg/mL (≈ 811 µM) | inactive | inactive | inactive | inactive | inactive | > 80% | –
